Several values for one entry are separate records, joined by “and”; a condition that tells them apart may be missing. Identical values can stand only once. Entries after “also recorded” stand apart in the source; their conditions may differ. Like-named read-outs stand apart in the source and are kept apart here.
What was measured:
EphrinB2-EphB2 [1] = molecular target: T1, EphrinB2-EphB2 (Homo sapiens, UniProt P29323); assay: Octet tetramerization inhibition, immobilized human EphrinB2 binding to 50 nM soluble human EphB2; conditions: for disruption of unsurmountable tetramer: 0.8-3.2 μM
T1 construct: soluble human EphB1-His, EphB2-His, and EphB4-His ectodomains; commercially available human EphrinB1-Fc (EB1), EphrinB2-Fc (EB2), and EphrinB3-Fc (EB3) ectodomain proteins; purchased
T1 sequence (P29323 19-543 limits assumed): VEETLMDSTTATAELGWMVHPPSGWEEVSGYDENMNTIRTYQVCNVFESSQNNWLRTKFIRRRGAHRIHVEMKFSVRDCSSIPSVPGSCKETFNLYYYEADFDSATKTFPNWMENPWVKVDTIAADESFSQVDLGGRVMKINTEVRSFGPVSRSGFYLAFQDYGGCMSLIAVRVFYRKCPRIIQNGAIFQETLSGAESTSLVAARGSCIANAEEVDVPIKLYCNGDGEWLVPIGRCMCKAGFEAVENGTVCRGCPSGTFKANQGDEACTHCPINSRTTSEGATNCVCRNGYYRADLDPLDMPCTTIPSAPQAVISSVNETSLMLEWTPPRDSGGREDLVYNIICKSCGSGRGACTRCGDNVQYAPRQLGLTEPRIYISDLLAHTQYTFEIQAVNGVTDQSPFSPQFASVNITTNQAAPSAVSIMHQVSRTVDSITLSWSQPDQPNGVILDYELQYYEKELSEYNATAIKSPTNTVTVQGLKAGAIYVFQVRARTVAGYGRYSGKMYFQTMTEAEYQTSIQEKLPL

EphrinB2-EphB2 [2] = molecular target: T1, EphrinB2-EphB2; assay: Octet 80 sec association/500 sec dissociation, immobilized human EphrinB2-Fc binding to soluble human EphB2-His
In short: (§1)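 EphrinB2-Fc captured on AHC biosensors, then soluble His-tagged EphB ectodomain (25 nM for % inhibition runs) associated 80 s and dissociated 500 s in PBS, 0.05% Tween-20, 1% DMSO ± compound. Compounds tested at 0.1–3.2 μM with a 10 μM max standard; IC50 from AUC of full traces or at 75 s and 135 s.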

EphrinB2-EphB4 = molecular target: T2, EphrinB2-EphB4 (Homo sapiens, UniProt P54760); assay: Octet 80 sec association/500 sec dissociation, immobilized human EphrinB2-Fc binding to soluble human EphB4-His; conditions: for inhibition at 3.2 µM: 25 nM EphB4, 3.2 μM compound, A20-I as max control, 0* = less than 0, no inhibition
T2 construct: soluble human EphB1-His, EphB2-His, and EphB4-His ectodomains; commercially available human EphrinB1-Fc (EB1), EphrinB2-Fc (EB2), and EphrinB3-Fc (EB3) ectodomain proteins; purchased
T2 sequence (P54760 16-539 limits assumed): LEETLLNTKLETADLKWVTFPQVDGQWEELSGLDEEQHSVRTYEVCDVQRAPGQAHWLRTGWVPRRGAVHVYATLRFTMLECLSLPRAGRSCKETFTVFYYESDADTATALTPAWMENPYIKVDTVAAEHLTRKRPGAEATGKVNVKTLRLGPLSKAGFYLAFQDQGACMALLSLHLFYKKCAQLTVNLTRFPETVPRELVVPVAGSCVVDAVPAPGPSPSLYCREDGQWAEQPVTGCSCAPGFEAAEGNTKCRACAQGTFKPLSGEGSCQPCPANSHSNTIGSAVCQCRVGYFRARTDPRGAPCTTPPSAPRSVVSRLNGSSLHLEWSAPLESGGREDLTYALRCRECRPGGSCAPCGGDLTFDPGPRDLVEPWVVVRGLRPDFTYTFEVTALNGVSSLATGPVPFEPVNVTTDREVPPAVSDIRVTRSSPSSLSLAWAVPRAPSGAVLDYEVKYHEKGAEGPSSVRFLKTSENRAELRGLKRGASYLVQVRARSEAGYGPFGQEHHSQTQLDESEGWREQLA
In short: as §1

[3] = Absolute AUC/IC50, Table A, EphrinB2-EphB2
[4] = Absolute Association IC50 (300 sec), Table A, EphrinB2-EphB2
[5] = Absolute Dissociation IC50 (450 sec), Table A, EphrinB2-EphB2
[6] = Relative AUC/IC50, Table A, EphrinB2-EphB2, compound 7: association only
[7] = Relative Association IC50 (300 sec), Table A, EphrinB2-EphB2
[8] = Relative Dissociation IC50 (450 sec), Table A, EphrinB2-EphB2
[9] = tetramerization inhibitor IC50 (relative), association step, surmountable tetramer
[10] = EphB2, 25 nM EphB2, 3.2 μM compound, A20-I as max control, 0* = less than 0, no inhibition
[11] = EphB2, 25 nM EphB2, 3.2 μM compound, A20-I as max control, 0* = less than 0, no inhibition, read-out: % Inhibition: Association + Dissociation (160 sec)
[12] = EphB2, 25 nM EphB2, 3.2 μM compound, A20-I as max control, 0* = less than 0, no inhibition, read-out: % Inhibition: Association ONLY (80 sec)
[13] = EphB4, read-out: % Inhibition: Association + Dissociation (160 sec)
[14] = EphB4, read-out: % Inhibition: Association ONLY (80 sec)

For `Oc1c(I)cc(CN2CCOCC2)c2cccnc12` [Compound 7, 7-iodo-5-(morpholinomethyl)quinolin-8-ol], the “tetramerization inhibitor activity” value (EphrinB2-EphB2 [1]) was “stronger tetramerization inhibitor compared to A20”, the IC50 (EphrinB2-EphB2 [1]; [3]) was greater than 1600 nM and the IC50 (EphrinB2-EphB2 [1]; [4]) was 1500 nM. It also gave an IC50 (EphrinB2-EphB2 [1]; [5]) greater than 1600 nM, an IC50 (EphrinB2-EphB2 [1]; [6]) of 440 nM and an IC50 (EphrinB2-EphB2 [1]; [7]) of 890 nM. The IC50 (EphrinB2-EphB2 [1]; [8]) was 1070 nM, the IC50 (EphrinB2-EphB2 [1]; [9]) was roughly 600 nM and the “% Inhibition: Association + Dissociation (160 sec)” value (EphrinB2-EphB2 [2]; [10]) was 80.6% and 77.6% and 74.3%. The “% Inhibition: Association ONLY (80 sec)” value (EphrinB2-EphB2 [2]; [10]) was 66.1% and 61.2% and 56.7%, the inhibition at 3.2 µM (EphrinB2-EphB2 [2]; [11]) was 75.3% and the inhibition at 3.2 µM (EphrinB2-EphB2 [2]; [12]) was 59.6%. For the same compound, the inhibition (EphrinB2-EphB2 [2]; EphB2, 10 μM 2×HCl salt, read-out: % Inhibited (AUC), Association) was 61.8%, the IC50 (EphrinB2-EphB2 [2]; EphB2, Association (75″), read-out: Absolute IC50) was 1660 nM and the IC50 (EphrinB2-EphB2 [2]; EphB2, Association (75″), read-out: Relative IC50) was 1200 nM. For the same compound, the IC50 (EphrinB2-EphB2 [2]; EphB2, Association (AUC), read-out: Absolute IC50) was 2240 nM, the IC50 (EphrinB2-EphB2 [2]; EphB2, Association (AUC), read-out: Relative IC50) was 1150 nM and the IC50 (EphrinB2-EphB2 [2]; EphB2, Dissociation (135″), read-out: Absolute IC50) was 410 nM. The IC50 (EphrinB2-EphB2 [2]; EphB2, Dissociation (135″), read-out: Relative IC50) was 340 nM, the IC50 (EphrinB2-EphB2 [2]; EphB2, Full AUC, read-out: Absolute IC50) was 240 nM and the IC50 (EphrinB2-EphB2 [2]; EphB2, Full AUC, read-out: Relative IC50) was 190 nM. For the same compound, the inhibition (EphrinB2-EphB2 [2]; EphB2, first 160 sec, 10 μM 2×HCl salt, read-out: % Inhibited (AUC), Association + Dissociation) was 76.5%, the inhibition (EphrinB2-EphB2 [2]; EphB2, highest dose, typically 3.2 μM, read-out: Association (% Inhibited (AUC))) was 56.4% and the inhibition (EphrinB2-EphB2 [2]; EphB2, highest dose, typically 3.2 μM, read-out: Association + Dissociation (% Inhibited (AUC))) was 74.7%. For the same compound, the “% Inhibited (AUC), Association + Dissociation” value (EphrinB2-EphB4; EphB4, 0-160 sec, 50 nM, 10 μM compound, Table 4) was 26.5%, the inhibition at 3.2 µM (EphrinB2-EphB4; [13]) was 32.9% and the “% Inhibited (AUC), Association” value (EphrinB2-EphB4; EphB4, 50 nM, 10 μM compound, Table 4) was 13.3%. It also gave an inhibition (EphrinB2-EphB4; EphB4, 10 μM 2×HCl salt, read-out: % Inhibited (AUC), Association) of 13.9%, an IC50 (EphrinB2-EphB4; EphB4, Association (75″), read-out: Absolute IC50) greater than 3200 nM and an IC50 (EphrinB2-EphB4; EphB4, Association (75″), read-out: Relative IC50) of 1700 nM. The IC50 (EphrinB2-EphB4; EphB4, Association (AUC), read-out: Absolute IC50) was greater than 3200 nM, the IC50 (EphrinB2-EphB4; EphB4, Association (AUC), read-out: Relative IC50) was 1660 nM and the IC50 (EphrinB2-EphB4; EphB4, Dissociation (135″), read-out: Absolute IC50) was 3020 nM. For the same compound, the IC50 (EphrinB2-EphB4; EphB4, Dissociation (135″), read-out: Relative IC50) was 980 nM, the IC50 (EphrinB2-EphB4; EphB4, Full AUC, read-out: Absolute IC50) was 1260 nM and the IC50 (EphrinB2-EphB4; EphB4, Full AUC, read-out: Relative IC50) was 890 nM. For the same compound, the inhibition (EphrinB2-EphB4; EphB4, first 160 sec, 10 μM 2×HCl salt, read-out: % Inhibited (AUC), Association + Dissociation) was 33.9%, the inhibition (EphrinB2-EphB4; EphB4, highest dose, typically 3.2 μM, read-out: Association (% Inhibited (AUC))) was 15.4% and the inhibition (EphrinB2-EphB4; EphB4, highest dose, typically 3.2 μM, read-out: Association + Dissociation (% Inhibited (AUC))) was 37%.
With `O=C(Cc1ccccc1)Nc1ccc(N2CCN(Cc3ccc(O)c4ncccc34)CC2)cc1` [Compound 51, N-(4-(4-((8-hydroxyquinolin-5-yl)methyl)piperazin-1-yl)phenyl)-2-phenylacetamide] the “disruption of unsurmountable tetramer” value (EphrinB2-EphB2 [1]) was “able to inhibit a small amount of the EphrinB2-EphB2 unsurmountable tetramer”, the IC50 (EphrinB2-EphB2 [1]; [3]) was 1510 nM and the IC50 (EphrinB2-EphB2 [1]; [4]) was 1450 nM. It also gave an IC50 (EphrinB2-EphB2 [1]; [5]) of 1290 nM, an IC50 (EphrinB2-EphB2 [1]; [6]) of 1020 nM and an IC50 (EphrinB2-EphB2 [1]; [7]) of 980 nM. For the same compound, the IC50 (EphrinB2-EphB2 [1]; [8]) was 930 nM, the IC50 (EphrinB2-EphB2 [1]; [9]) was roughly 1200 nM and the inhibition at 3.2 µM (EphrinB2-EphB2 [2]; [11]) was 78.8%. For the same compound, the inhibition at 3.2 µM (EphrinB2-EphB2 [2]; [12]) was 64.8%, the inhibition at 3.2 µM (EphrinB2-EphB4; [13]) was 37.2% and the inhibition at 3.2 µM (EphrinB2-EphB4; [14]) was 18.1%.
In the case of `O=[N+]([O-])c1cc(CN2CCS(=O)(=O)CC2)c2cccnc2c1O` [Compound 20, 4-((8-hydroxy-7-nitroquinolin-5-yl)methyl)thiomorpholine 1,1-dioxide], the IC50 (EphrinB2-EphB2 [1]; [3]) is reported as greater than 3200 nM, the IC50 (EphrinB2-EphB2 [1]; [4]) is reported as greater than 3200 nM and the IC50 (EphrinB2-EphB2 [1]; [5]) is reported as greater than 3200 nM. For the same compound, the IC50 (EphrinB2-EphB2 [1]; [7]) was 2140 nM, the IC50 (EphrinB2-EphB2 [1]; [8]) was 2090 nM and the IC50 (EphrinB2-EphB2 [1]; [9]) was greater than 3000 nM. For the same compound, the inhibition at 3.2 µM (EphrinB2-EphB2 [2]; [11]) was 51.7%, the inhibition at 3.2 µM (EphrinB2-EphB2 [2]; [12]) was 36.7% and the “inhibition of EphB2-EphrinB2 binding” value (EphrinB2-EphB2 [2]; association step, general) was 40%. For the same compound, the “selectivity among EphrinB2-EphB1/B2/B4” value (EphrinB2-EphB4; 3.2 μM, listed as QTM-NO2) was “ability to selectively inhibit EphrinB2-EphB2 and EphrinB2-EphB1 interactions, while sparing the EphrinB2-EphB4 interaction; also recorded: less action towards EphB4 but high specificity for EphB1 and EphB2”, the inhibition at 3.2 µM (EphrinB2-EphB4; [13]) was 0% and the inhibition at 3.2 µM (EphrinB2-EphB4; [14]) was 0%.
For `COc1ccccc1N1CCN(Cc2cc(I)c(O)c3ncccc23)CC1` [Compound 71, 7-iodo-5-((4-(2-methoxyphenyl)piperazin-1-yl)methyl)quinolin-8-ol], the “tetramerization inhibitor activity” value (EphrinB2-EphB2 [1]) was “exhibit strong IC50 values”, the “disruption of unsurmountable tetramer” value (EphrinB2-EphB2 [1]; listed as 3511-1) was “fairly strong ability to disrupt some of the unsurmountable tetramer” and the “disruption of unsurmountable tetramer” value (EphrinB2-EphB2 [1]; listed as 3511-I) was “able to inhibit a small amount of the EphrinB2-EphB2 unsurmountable tetramer”. For the same compound, the IC50 (EphrinB2-EphB2 [1]; [3]) was 420 nM and 530 nM, the IC50 (EphrinB2-EphB2 [1]; [4]) was 680 nM and the IC50 (EphrinB2-EphB2 [1]; [5]) was 620 nM and 650 nM. The IC50 (EphrinB2-EphB2 [1]; [6]) was 380 nM and 410 nM, the IC50 (EphrinB2-EphB2 [1]; [7]) was 470 nM and 340 nM and the IC50 (EphrinB2-EphB2 [1]; [8]) was 480 nM and 510 nM. The “inhibition of EphrinB2-EphB interactions” value (EphrinB2-EphB2 [2]; 3.2 μM, EphB1, EphB2 and EphB4) was “activity similar to A20-I max control”, the inhibition at 3.2 µM (EphrinB2-EphB2 [2]; [11]) was 73.2% and the inhibition at 3.2 µM (EphrinB2-EphB2 [2]; [12]) was 58.7%. The inhibition at 3.2 µM (EphrinB2-EphB4; [13]) was 35.6% and the inhibition at 3.2 µM (EphrinB2-EphB4; [14]) was 17.5%.
